Data set [1] in a line: Plasma levels of QC and VPA in blood of off-label treated AML patients, measured by LC/MS. It counts as in vivo, human. The settings on record: for concentration at 3 h: 3 h after intake; for concentration at 25 day: Patient 1, day 25, QC 200 mg/day, VPA 600 + 1200 mg/day; for concentration at 64 day: Patient 1, day 64, QC 300 mg/day; for concentration at 163 day: Patient 1, day 163, QC 400 mg/day; for concentration at 65 day: Patient 2, day 65, QC 200 mg/day. An excerpt: The plasma concentration may be the blood plasma concentration or bone marrow plasma concentration. […] Plasma concentrations may be determined by liquid chromatography-mass spectrometry (LC-MS).

A short description of data set [2]: Plasma levels of QC and VPA in bone marrow (BM) of off-label treated AML patients, measured by LC/MS. It is filed as in vivo, human.
Setting [3] is: human, oral, Plasma VPA, VPA 300 + 600 mg/day.
[4] abbreviates: human, oral, VPA 300 + 600 mg/day, read-out: Plasma QC.

Like-named read-outs stand apart in the source and are kept apart here.

This is an account of results in patent publication US20230390278A1, “SYNERGISTIC COMBINATIONS OF VALPROOIC ACID AND QUINACRINE” (VESTLANDETS INNOVASJONSSELSKAP AS, priority 2020, published 2023).

As to `CCCC(CCC)C(=O)O` [VPA, 2-propylvaleric acid], in data set [1] (Patient 1, day 128, QC 400 mg/day, VPA 600 + 900 mg/day, neg: negative), the “Plasma VPA” value was “neg”. For the same compound, the concentration at 3 h in data set [1] (human, oral, Plasma VPA, Patient 1, day 1, QC 100 mg/day, VPA 300 + 300 mg/day) was 17.1 µM; in data set [1] (human, oral, Plasma VPA, Patient 2, day 1, QC 100 mg/day, VPA 300 + 600 mg/day), 156 µM; in data set [1] (human, oral, Plasma VPA, Patient 3, day 1, QC 100 mg/day, VPA 300 + 300 mg/day) it was 120 µM. Moreover, the concentration at 25 day in data set [1] (human, oral, Plasma VPA) turned out to be 43 µM. Moreover, the concentration at 64 day in data set [1] (human, oral, Plasma VPA, VPA 600 + 900 mg/day) came out at 25.6 µM. Also, the concentration at 163 day in data set [1] (setting [3]) came out at 119 µM. The concentration at 15 day in data set [1] (human, oral, Plasma VPA, Patient 2, day 15, QC 200 mg/day, VPA 600 + 600 mg/day) was determined as 442 µM; in data set [1] (human, oral, Plasma VPA, Patient 3, day 15, QC 300 mg/day, VPA 300 + 600 mg/day) it was 41.3 µM. Also, the concentration at 65 day in data set [1] (setting [3]) stood at 341 µM.
Regarding `CCN(CC)CCCC(C)Nc1c2ccc(Cl)cc2nc2ccc(OC)cc12` (racemic) [QC, (RS)-N′-(6-chloro-2-methoxy-acridin-9-yl)-N, N-diethyl-pentane-1,4-diamine], the “Plasma QC, BM” value in data set [2] (Patient 1, day 163, QC 400 mg/day, VPA 300 + 600 mg/day) is given as “BM: 44 nM”; in data set [2] (Patient 2, day 15, QC 200 mg/day, VPA 600 + 600 mg/day) it was “BM: 32 nM”; in data set [2] (Patient 2, day 65, QC 200 mg/day, VPA 300 + 600 mg/day), “BM: 332 nM”. Besides, the concentration at 3 h in data set [1] (human, oral, Patient 1, day 1, QC 100 mg/day, VPA 300 + 300 mg/day, read-out: Plasma QC) was 0.004 µM; in data set [1] (human, oral, Patient 2, day 1, QC 100 mg/day, VPA 300 + 600 mg/day, read-out: Plasma QC), 0.008 µM; in data set [1] (human, oral, Patient 3, day 1, QC 100 mg/day, VPA 300 + 300 mg/day, read-out: Plasma QC), 0.008 µM. Besides, in data set [1] (human, oral, read-out: Plasma QC), the concentration at 25 day was determined as 0.052 µM. Besides, the concentration at 64 day in data set [1] (human, oral, VPA 600 + 900 mg/day, read-out: Plasma QC) amounted to 0.138 µM. Further, the concentration at 128 day in data set [1] (human, oral, Patient 1, day 128, QC 400 mg/day, VPA 600 + 900 mg/day) stood at 0.038 µM. In addition, the concentration at 163 day in data set [1] (setting [4]) turned out to be 0.038 µM. Further, the concentration at 15 day was 0.018 µM in data set [1] (human, oral, Patient 2, day 15, QC 200 mg/day, VPA 600 + 600 mg/day, read-out: Plasma QC) and 0.3 µM in data set [1] (human, oral, Patient 3, day 15, QC 300 mg/day, VPA 300 + 600 mg/day, read-out: Plasma QC). Besides, the concentration at 65 day in data set [1] (setting [4]) was 0.13 µM.
